Source: US20250114374A1, “BCL-2 INHIBITORS” (Newave Pharmaceutical Inc., priority 2021, published 2025)

Tested on: RS4; 11 with G101V mutation
Test: In vitro anti-proliferation assay (ATPlite luminescence) in BCL-2-dependent ALL cell line RS4;11 with G101V mutation
Assay type: cell-based
Settings: Homo sapiens, RS4-11, 72 h; read-out: RS411-G101V IC50
Outline: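 IC50 came from luminescent ATP quantification (ATPlite) following cell lysis. Compound dose ranges were applied for roughly 72 h to about 1×10^4 G101V-mutant RS4;11 cells per well, in 10% FBS medium.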

IC50 [nM] | Compound
9.6 | CC(C)Oc1ccccc1[C@@H]1CN(Cc2ccc(F)c(F)c2)CCN1C1CC2(CCN(c3ccc(C(=O)NS(=O)(=O)c4cc5c(c([N+](=O)[O-])c4)N[C@H](C4CCOCC4)CO5)c(N4c5cc6cc[nH]c6nc5O[C@H]5COCC[C@@H]54)c3)CC2)C1 [Example 181, 4-(2-((R)-4-(3,4-difluorobenzyl)-2-(2-isopropoxyphenyl)piperazin-1-yl)-7-azaspiro[3.5]nonan-7-yl)-N-(((R)-5-nitro-3-(tetrahydro-2H-pyran-4-yl)-3,4-dihydro-2H-benzo[b][1,4]oxazin-7-yl)sulfonyl)-2-((5aS,9aR)-6,7,9,9a-tetrahydro-1H-pyrano[3,4-b]pyrrolo[3′,2′:5,6]pyrido[3,2-e][1,4]oxazin-5(5aH)-yl)benzamide]
58.1 | CC(C)Oc1ccccc1[C@@H]1CN(C2CCOCC2)CCN1C1CC2(CCN(c3ccc(C(=O)NS(=O)(=O)c4cc5c(c([N+](=O)[O-])c4)N[C@H](C4CCOCC4)CO5)c(N4c5cc6cc[nH]c6nc5O[C@H]5COCC[C@@H]54)c3)CC2)C1 [Example 182, 4-(2-((R)-2-(2-isopropoxyphenyl)-4-(tetrahydro-2H-pyran-4-yl)piperazin-1-yl)-7-azaspiro[3.5]nonan-7-yl)-N-(((R)-5-nitro-3-(tetrahydro-2H-pyran-4-yl)-3,4-dihydro-2H-benzo[b][1,4]oxazin-7-yl)sulfonyl)-2-((5aS,9aR)-6,7,9,9a-tetrahydro-1H-pyrano[3,4-b]pyrrolo[3′,2′:5,6]pyrido[3,2-e][1,4]oxazin-5(5aH)-yl)benzamide]
73.3 | Cc1ccccc1[C@@H]1CN(C2CCOCC2)CCN1C1CC2(CCN(c3ccc(C(=O)NS(=O)(=O)c4cc5c(c([N+](=O)[O-])c4)N[C@H](C4CCOCC4)CO5)c(N4c5cc6cc[nH]c6nc5O[C@H]5COCC[C@@H]54)c3)CC2)C1 [Example 183, N—(((R)-5-nitro-3-(tetrahydro-2H-pyran-4-yl)-3,4-dihydro-2H-benzo[b][1,4]oxazin-7-yl)sulfonyl)-2-((5aS,9aR)-6,7,9,9a-tetrahydro-1H-pyrano[3,4-b]pyrrolo[3′,2′:5,6]pyrido[3,2-e][1,4]oxazin-5(5aH)-yl)-4-(2-((R)-4-(tetrahydro-2H-pyran-4-yl)-2-(o-tolyl)piperazin-1-yl)-7-azaspiro[3.5]nonan-7-yl)benzamide]

Same assay, conditions: cellular anti-proliferative IC50, about 72 hours, medium with 10% FBS, ATPlite; read-out: RS411-G101V IC50

Compound | IC50 [nM]
CC(C)c1ccccc1[C@@H]1CN(Cc2ccc(F)c(F)c2)CCN1C1CC2(CCN(c3ccc(C(=O)NS(=O)(=O)c4cc5c(c([N+](=O)[O-])c4)N[C@H](C4CCOCC4)CO5)c(N4c5cc6cc[nH]c6nc5O[C@H]5COCC[C@@H]54)c3)CC2)C1 [Example 180, 4-{2-[(2R)-4-[(3,4-difluorophenyl)methyl]-2-(2-isopropylphenyl)piperazin-1-yl]-7-azaspiro[3.5]nonan-7-yl}-2-[(3R,8S)-2,5-dioxa-9,15,17-triazatetracyclo[8.7.0.0^{3,8}.0^{12,16}]heptadeca-1(10),11,13,16-tetraen-9-yl]-N-[(3R)-5-nitro-3-(oxan-4-yl)-3,4-dihydro-2H-1,4-benzoxazin-7-ylsulfonyl]benzamide] | 7.5
Cc1ccccc1[C@@H]1CN(CC2CCOCC2)CCN1C1CC2(CCN(c3ccc(C(=O)NS(=O)(=O)c4cc5c(c([N+](=O)[O-])c4)N[C@H](C4CCOCC4)CO5)c(N4c5cc6cc[nH]c6nc5O[C@H]5COCC[C@@H]54)c3)CC2)C1 [Example 184, 2-[(3R,8S)-2,5-dioxa-9,15,17-triazatetracyclo[8.7.0.0^{3,8}.0^{12,16}]heptadeca-1(10),11,13,16-tetraen-9-yl]-4-{2-[(2R)-2-(2-methylphenyl)-4-(oxan-4-ylmethyl)piperazin-1-yl]-7-azaspiro[3.5]nonan-7-yl}-N-[(3R)-5-nitro-3-(oxan-4-yl)-3,4-dihydro-2H-1,4-benzoxazin-7-ylsulfonyl]benzamide] | 40.6
CC(C)Oc1ccccc1[C@H]1CN(Cc2ccc(F)c(F)c2)CCN1C1CC2(CCN(c3ccc(C(=O)NS(=O)(=O)c4ccc(NCC5CCOCC5)c([N+](=O)[O-])c4)c(N4c5cc6cc[nH]c6nc5O[C@H]5COCC[C@@H]54)c3)CC2)C1 [Example 185, 4-{2-[(2S)-4-[(3,4-difluorophenyl)methyl]-2-(2-isopropoxyphenyl)piperazin-1-yl]-7-azaspiro[3.5]nonan-7-yl}-2-[(3R,8S)-2,5-dioxa-9,15,17-triazatetracyclo[8.7.0.0^{3,8}.0^{12,16}]heptadeca-1(10),11,13,16-tetraen-9-yl]-N-{3-nitro-4-[(oxan-4-ylmethyl)amino]benzenesulfonyl}benzamide] | 112
CC(C)Oc1ccccc1[C@@H]1CN(Cc2ccc(F)c(F)c2)CCN1C1CC2(CCN(c3ccc(C(=O)NS(=O)(=O)c4ccc(NCC5CCOCC5)c([N+](=O)[O-])c4)c(N4c5cc6cc[nH]c6nc5O[C@H]5COCC[C@@H]54)c3)CC2)C1 [Example 186, 4-{2-[(2R)-4-[(3,4-difluorophenyl)methyl]-2-(2-isopropoxyphenyl)piperazin-1-yl]-7-azaspiro[3.5]nonan-7-yl}-2-[(3R,8S)-2,5-dioxa-9,15,17-triazatetracyclo[8.7.0.0^{3,8}.0^{12,16}]heptadeca-1(10),11,13,16-tetraen-9-yl]-N-{3-nitro-4-[(oxan-4-ylmethyl)amino]benzenesulfonyl}benzamide] | 10.6
COc1cc(CN2CCN(C3CC4(CCN(c5ccc(C(=O)NS(=O)(=O)c6cc7c(c([N+](=O)[O-])c6)N[C@H](C6CCOCC6)CO7)c(N6c7cc8cc[nH]c8nc7O[C@H]7COCC[C@@H]76)c5)CC4)C3)[C@H](c3ccccc3C)C2)cnc1N1CCOC[C@@H]1C [Example 187, 2-[(3R,8S)-2,5-dioxa-9,15,17-triazatetracyclo[8.7.0.0^{3,8}.0^{12,16}]heptadeca-1(10),11,13,16-tetraen-9-yl]-4-{2-[(2R)-4-({5-methoxy-6-[(3S)-3-methylmorpholin-4-yl]pyridin-3-yl}methyl)-2-(2-methylphenyl)piperazin-1-yl]-7-azaspiro[3.5]nonan-7-yl}-N-[(3R)-5-nitro-3-(oxan-4-yl)-3,4-dihydro-2H-1,4-benzoxazin-7-ylsulfonyl]benzamide] | 2.04
COc1cc(CN2CCN(C3CC4(CCN(c5ccc(C(=O)NS(=O)(=O)c6cc7c(c([N+](=O)[O-])c6)N[C@H](C6CCOCC6)CO7)c(N6c7cc8cc[nH]c8nc7O[C@H]7COCC[C@@H]76)c5)CC4)C3)[C@H](c3ccccc3C)C2)cnc1N1CCOC[C@H]1C [Example 188, 2-[(3R,8S)-2,5-dioxa-9,15,17-triazatetracyclo[8.7.0.0^{3,8}.0^{12,16}]heptadeca-1(10),11,13,16-tetraen-9-yl]-4-{2-[(2R)-4-({5-methoxy-6-[(3R)-3-methylmorpholin-4-yl]pyridin-3-yl}methyl)-2-(2-methylphenyl)piperazin-1-yl]-7-azaspiro[3.5]nonan-7-yl}-N-[(3R)-5-nitro-3-(oxan-4-yl)-3,4-dihydro-2H-1,4-benzoxazin-7-ylsulfonyl]benzamide] | 11.1
